Measurements as given in PubChem BioAssay (NCI).
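In this assay, cells in 96-well plates receive the compound at five concentrations for 48 hours. Endpoints are linearly interpolated between the surrounding concentrations. Abbreviation: GI50, concentration required for 50% inhibition of growth. The concentration for full growth arrest is given as TGI.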

Tests used:
Experiment in all cases: NCI anticancer screen, dose series, 48 h
[1] = test system: MCF7 breast
[2] = test system: HCT-116 colon
[3] = test system: RXF 393 renal
[4] = test system: UACC-62 melanoma
[5] = test system: U251 CNS
[6] = test system: SF-295 CNS
[7] = test system: OVCAR-8 ovarian
[8] = test system: HOP-62 NSCLC
[9] = test system: SK-MEL-5 melanoma
[10] = test system: CAKI-1 renal
[11] = test system: NCI-H522 lung
[12] = test system: PC-3 prostate
[13] = test system: MOLT-4 leukemia
[14] = test system: DU-145 prostate
[15] = test system: SW-620 colon
[16] = test system: SK-OV-3 ovarian
[17] = test system: HOP-92 NSCLC
[18] = test system: UACC-257 melanoma
[19] = test system: NCI-H460 lung
[20] = test system: EKVX NSCLC
[21] = test system: A498 renal
[22] = test system: CCRF-CEM leukemia
[23] = test system: OVCAR-3 ovarian
[24] = test system: SNB-19 CNS
[25] = test system: T-47D breast
[26] = test system: OVCAR-4 ovarian
[27] = test system: SN12C renal
[28] = test system: MDA-MB-435
[29] = test system: HCC-2998 colon
[30] = test system: A549 NSCLC
[31] = test system: SF-268 CNS
[32] = test system: TK-10 renal
[33] = test system: SNB-75 CNS
[34] = test system: SK-MEL-28 melanoma
[35] = test system: OVCAR-5 ovarian
[36] = test system: K-562 leukemia
[37] = test system: SF-539 CNS
[38] = test system: MDA-MB-231 breast
[39] = test system: M14 melanoma
[40] = test system: ACHN renal
[41] = test system: KM12 colon
[42] = test system: HCT-15 colon
[43] = test system: BT-549 breast
[44] = test system: UO-31 renal
[45] = test system: HT29 colon
[46] = test system: IGROV1 ovarian
[47] = test system: LOX IMVI melanoma
[48] = test system: NCI/ADR-RES ovarian
[49] = test system: NCI-H226 lung
[50] = test system: SK-MEL-2 melanoma
[51] = test system: 786-0 renal
[52] = test system: COLO 205 colon
[53] = test system: NCI-H23 lung
[54] = test system: MALME-3M melanoma

Q: For `Nc1ccccc1C#Cc1ccccc1C#Cc1ccccc1N`, which GI50 [1] is on record?
A: Its GI50 is 12.4 µM.

Q: And the TGI [1]?
A: The TGI was greater than 100 µM.

Q: What about the GI50 [2] of the same compound?
A: The GI50 was 6.32 µM.

Q: And the TGI [2]?
A: The TGI was 21.5 µM.

Q: And the GI50 [3]?
A: The GI50 was 9.74 µM.

Q: And the TGI [3]?
A: The TGI was 32 µM.

Q: And the GI50 [4]?
A: Its GI50 is 6.93 µM.

Q: What about the TGI [4] of the same compound?
A: Its TGI is 21.2 µM.

Q: What about the GI50 [5] of the same compound?
A: Its GI50 is 4.5 µM.

Q: What about the TGI [5] of the same compound?
A: Its TGI is 17.3 µM.

Q: And the GI50 [6]?
A: Its GI50 is 3.13 µM.

Q: What about the TGI [6] of the same compound?
A: Its TGI is 10.5 µM.

Q: What about the GI50 [7] of the same compound?
A: Its GI50 is 20.7 µM.

Q: And the TGI [7]?
A: Its TGI is 49.4 µM.

Q: And the GI50 [8]?
A: Its GI50 is 11 µM.

Q: And the TGI [8]?
A: The TGI was 26.7 µM.

Q: What about the GI50 [9] of the same compound?
A: Its GI50 is 9.09 µM.

Q: And the TGI [9]?
A: The TGI was 22.9 µM.

Q: What about the GI50 [10] of the same compound?
A: The GI50 was 4.41 µM.

Q: What about the TGI [10] of the same compound?
A: The TGI was 18.5 µM.

Q: And the GI50 [11]?
A: Its GI50 is 3.17 µM.

Q: What about the TGI [11] of the same compound?
A: Its TGI is 11.5 µM.

Q: And the GI50 [12]?
A: Its GI50 is 5.31 µM.

Q: What about the TGI [12] of the same compound?
A: The TGI was 23.3 µM.

Q: What about the GI50 [13] of the same compound?
A: The GI50 was 2.12 µM.

Q: What about the TGI [13] of the same compound?
A: The TGI was 11.9 µM.

Q: And the GI50 [14]?
A: The GI50 was 11.3 µM.

Q: And the TGI [14]?
A: The TGI was 28.6 µM.

Q: What about the GI50 [15] of the same compound?
A: Its GI50 is 5.31 µM.

Q: What about the TGI [15] of the same compound?
A: Its TGI is 18.4 µM.

Q: And the GI50 [16]?
A: Its GI50 is 15.1 µM.

Q: And the TGI [16]?
A: Its TGI is 35.5 µM.

Q: What about the GI50 [17] of the same compound?
A: Its GI50 is 3.62 µM.

Q: What about the TGI [17] of the same compound?
A: The TGI was 15.6 µM.

Q: What about the GI50 [18] of the same compound?
A: The GI50 was 30.1 µM.

Q: What about the TGI [18] of the same compound?
A: The TGI was greater than 100 µM.

Q: And the GI50 [19]?
A: Its GI50 is 5.89 µM.

Q: What about the TGI [19] of the same compound?
A: The TGI was greater than 100 µM.

Q: What about the GI50 [20] of the same compound?
A: Its GI50 is 8.03 µM.

Q: And the TGI [20]?
A: The TGI was 32.8 µM.

Q: What about the GI50 [21] of the same compound?
A: The GI50 was 6 µM.

Q: What about the TGI [21] of the same compound?
A: The TGI was 19.8 µM.

Q: What about the GI50 [22] of the same compound?
A: Its GI50 is 3.21 µM.

Q: And the TGI [22]?
A: Its TGI is 16.2 µM.

Q: What about the GI50 [23] of the same compound?
A: Its GI50 is 2.22 µM.

Q: What about the TGI [23] of the same compound?
A: Its TGI is 8.24 µM.

Q: And the GI50 [24]?
A: Its GI50 is 23.3 µM.

Q: And the TGI [24]?
A: Its TGI is 65.8 µM.

Q: What about the GI50 [25] of the same compound?
A: Its GI50 is 17.1 µM.

Q: What about the TGI [25] of the same compound?
A: Its TGI is 38.4 µM.

Q: What about the GI50 [26] of the same compound?
A: The GI50 was 23.3 µM.

Q: And the TGI [26]?
A: The TGI was 80.9 µM.

Q: What about the GI50 [27] of the same compound?
A: The GI50 was 11.4 µM.

Q: And the TGI [27]?
A: The TGI was 24.5 µM.

Q: And the GI50 [28]?
A: The GI50 was 1.31 µM.

Q: What about the TGI [28] of the same compound?
A: Its TGI is 4.39 µM.

Q: What about the GI50 [29] of the same compound?
A: The GI50 was 14 µM.

Q: What about the TGI [29] of the same compound?
A: Its TGI is 41 µM.

Q: And the GI50 [30]?
A: The GI50 was 22.1 µM.

Q: And the TGI [30]?
A: Its TGI is greater than 100 µM.

Q: What about the GI50 [31] of the same compound?
A: Its GI50 is 10.6 µM.

Q: What about the TGI [31] of the same compound?
A: The TGI was 37 µM.

Q: What about the GI50 [32] of the same compound?
A: Its GI50 is 4.17 µM.

Q: And the TGI [32]?
A: Its TGI is 20 µM.

Q: What about the GI50 [33] of the same compound?
A: Its GI50 is 23.7 µM.

Q: And the TGI [33]?
A: The TGI was 70.3 µM.

Q: What about the GI50 [34] of the same compound?
A: The GI50 was 15.1 µM.

Q: And the TGI [34]?
A: The TGI was 87.8 µM.

Q: What about the GI50 [35] of the same compound?
A: Its GI50 is 27.6 µM.

Q: And the TGI [35]?
A: The TGI was 67.4 µM.

Q: And the GI50 [36]?
A: The GI50 was 2.01 µM.

Q: What about the TGI [36] of the same compound?
A: Its TGI is 12.8 µM.

Q: And the GI50 [37]?
A: Its GI50 is 5.4 µM.

Q: What about the TGI [37] of the same compound?
A: Its TGI is 21.1 µM.

Q: What about the GI50 [38] of the same compound?
A: The GI50 was 9.04 µM.

Q: And the TGI [38]?
A: Its TGI is 24.6 µM.

Q: What about the GI50 [39] of the same compound?
A: Its GI50 is 6.62 µM.

Q: And the TGI [39]?
A: The TGI was 24.5 µM.

Q: And the GI50 [40]?
A: Its GI50 is 14 µM.

Q: What about the TGI [40] of the same compound?
A: Its TGI is 29.7 µM.

Q: And the GI50 [41]?
A: The GI50 was 2.97 µM.

Q: And the TGI [41]?
A: Its TGI is 14.7 µM.

Q: What about the GI50 [42] of the same compound?
A: The GI50 was 3.42 µM.

Q: What about the TGI [42] of the same compound?
A: The TGI was 16.8 µM.

Q: And the GI50 [43]?
A: Its GI50 is 5.41 µM.

Q: And the TGI [43]?
A: Its TGI is 24.7 µM.

Q: And the GI50 [44]?
A: Its GI50 is 6.34 µM.

Q: What about the TGI [44] of the same compound?
A: The TGI was 22.5 µM.

Q: What about the GI50 [45] of the same compound?
A: The GI50 was 5.98 µM.

Q: And the TGI [45]?
A: Its TGI is greater than 100 µM.

Q: And the GI50 [46]?
A: Its GI50 is 10.2 µM.

Q: And the TGI [46]?
A: Its TGI is 30.4 µM.

Q: What about the GI50 [47] of the same compound?
A: Its GI50 is 7.31 µM.

Q: What about the TGI [47] of the same compound?
A: The TGI was 20.9 µM.

Q: What about the GI50 [48] of the same compound?
A: The GI50 was 13 µM.

Q: And the TGI [48]?
A: The TGI was 73.3 µM.

Q: What about the GI50 [49] of the same compound?
A: Its GI50 is 12.7 µM.

Q: And the TGI [49]?
A: The TGI was 31.1 µM.

Q: And the GI50 [50]?
A: The GI50 was 11.3 µM.

Q: What about the TGI [50] of the same compound?
A: The TGI was 30.2 µM.

Q: And the GI50 [51]?
A: Its GI50 is 11.9 µM.

Q: And the TGI [51]?
A: Its TGI is 31.2 µM.

Q: And the GI50 [52]?
A: Its GI50 is 15 µM.

Q: What about the TGI [52] of the same compound?
A: Its TGI is 43.9 µM.

Q: And the GI50 [53]?
A: The GI50 was 19.3 µM.

Q: And the TGI [53]?
A: The TGI was 70.8 µM.

Q: And the GI50 [54]?
A: Its GI50 is 10.3 µM.

Q: And the TGI [54]?
A: The TGI was 24.1 µM.
